# Values joined by “and” are separate entries in the source; they are usually repeats but may differ in a detail not shown here. Identical values can stand only once. “Also recorded” adds a separate entry of the source.
# How the values were obtained:
# [1] = Solubility in aqueous formulation with poloxamer-407 (P-407); assay type: physicochemical
# Protocol: Stock samples of solid formulated Fz analogs were prepared using the following protocol. First, P-407 (Pluronic F127) was placed into a screw-cap glass vial. The polymer was then heated to 75 °C in a water bath until melted. Fz analogs dissolved in ethanol were added to the hot polymer, mixing well with a thin spatula. Additional rinses of Fz analogs in ethanol were added to the hot polymer for quantitative transfer. The solvent was then removed under vacuum. This concentrated sample was diluted with water to make a dispensing mixture of 4–9 mM Fz analogs in water. Next, this aqueous stock was aliquoted into glass vials, frozen and lyophilized overnight to give a yellow cake. For i.p. injection into mice, DPBS (Corning, 21-031-CV) was added to the vial and rocked to create a clear solution.
# Antares = Antares (Oplophorus gracilirostris, UniProt Q9GV45, A31E/A60N/A81I/F95D/I117V/K70R/L54V/L99Q/M102K/N193R/P142E/Q151K/Q38R/Q45L/V71I/Y165I); assay: Enzymatic analysis of Antares and Fz analogs; assay type: biochemical; design: His tag (inferred from purification on HisLink resin); made in house; host or cells: Escherichia coli; settings: for Relative kcat: relative to Fz
# Antares, sequence (Q9GV45 other isoform, or with tags, fused parts or gaps with the stated changes): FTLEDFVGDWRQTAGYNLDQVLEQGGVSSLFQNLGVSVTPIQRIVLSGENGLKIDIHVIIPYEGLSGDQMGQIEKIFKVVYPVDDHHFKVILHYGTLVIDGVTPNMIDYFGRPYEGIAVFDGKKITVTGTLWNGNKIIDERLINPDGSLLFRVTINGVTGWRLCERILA
# Protocol: Two milliliters of LB broth with 100 µg ml^–1 ampicillin was inoculated with a single colony of clone ATG-3802 (Antares codon optimized for Escherichia coli) and grown overnight at 37 °C. On the following day, the overnight culture was diluted 1:100 into a flask containing 50 ml of Terrific Broth and 100 µg ml^–1 ampicillin. The sample was grown at 37 °C with shaking (275 r.p.m.) for 4 h. The culture was chilled on ice, and 1% rhamnose was added to induce protein expression. The culture was placed in a 15 °C shaker (275 r.p.m.) and grown for 48 h. Cells were collected by centrifugation and resuspended in 10 ml of 100 mM HEPES (pH 7.5), 150 mM NaCl, 10 mM imidazole and 1 mg ml^–1 lysozyme. The resuspended cells were sonicated on ice (5 s on, 5 s off for 2 min, 12 amplitude). The sample was centrifuged (12,000g for 15 min), and 1 ml of HisLink resin (Promega) was added to the cleared lysate. Samples were incubated at 4 °C on an orbital mixer for 2 h. After incubation, the resin was washed three times with HisLink wash buffer (Promega). After the final wash, the sample was eluted (incubated 3 min with mixing) two times with 1 ml of HisLink elution buffer (Promega). The sample was dialyzed (10-kDa molecular weight cutoff, Thermo Fisher Slide-A-Lyzer) for 24 h in TBS and 50% glycerol.
# To quantify luminescence as a function of substrate concentration, substrates were diluted to 30 μM and serially diluted in twofold steps into DPBS with 0.01% BSA in triplicate. Fifty microliters of each substrate dilution was then mixed with 50 μl of a solution of 20 pM Antares protein in DPBS with 0.01% BSA. Luminescence was measured immediately using a GloMax-Multi+ luminometer (Promega). Km and Vmax were then calculated using the Michaelis–Menten non-linear regression function in the program Prism (GraphPad).
# [2] = Toxicity in mice: necropsy and histopathology; assay type: in vivo, C57BL/6 mice; design: key to BMH, brain multifocal hemorrhage score / HN, hepatocellular necrosis score / RTD, renal tubular dilation score / RTDR, renal tubular degeneration and regeneration score: 0: absent; 1: minimal; 2: mild; 3: moderate; 4: severe; key to HMNH, heart myocardial necrosis and hemorrhage score: 0: no lesions; 1: <5% of myocardium affected; 2: 5-10% affected; 3: 10-25% affected; 4: >25% affected; key to SRPHMV, splenic red pulp histiocytosis with microvesicular vacuolation score: 0: no lesions; 1: lesions present; key to LC, Liver capsule score: 0: normal; 1: segmental subcapsular necrosis +/- neutrophilic infiltrate; Total organ score: scale not given here; settings: for toxicity after a single i.p. injection: 4.2 µmol with 20 mg P-407, one injection; for BMH, brain multifocal hemorrhage score / HMNH, heart myocardial necrosis and hemorrhage score / HN, hepatocellular necrosis score / LC, Liver capsule score / RTD, renal tubular dilation score / RTDR, renal tubular degeneration and regeneration score / SRPHMV, splenic red pulp histiocytosis with microvesicular vacuolation score / Total organ score / ∆ weight: individual mice
# Protocol: Male C57BL/6 mice of 2 months of age were killed by CO2 asphyxiation and cardiac exsanguination. All mice were weighed, and a complete gross examination of the external and internal organs was performed. […] Formalin-fixed tissues were processed routinely, embedded in paraffin, sectioned at 5 μm and stained with hematoxylin and eosin. All slides were blindly evaluated for histologic treatment-related effects (Supplementary Table 1) by a board-certified veterinary pathologist.
smiles,measurement,setting,value
"O=c1c(Cc2ccco2)nc2c(Cc3ccccc3)[nH]c(-c3ccccc3)cn1-2 [Fz, furimazine, reference compound]",solubility of 1.3 μmol in P-407 formulation,[1]; 1.3 μmol,not soluble in P-407
same,Km,Antares,0.38 µM
same,Relative kcat,Antares,1.0
"O=c1c(Cc2ccco2)nc2c(Cc3ccccc3)[nH]c(-c3cccc(F)c3F)cn1-2 [compound 6, cephalofurimazine]",weight loss,"[2]; 1.3 µmol CFz with 12 mg P-407, daily for 3 or 5 d",< 5%
same,effects on organ tissues after daily administration,"[2]; 1.3 µmol CFz with 12 mg P-407, daily i.p. for 3 or 5 d, listed as CFz",mild and well tolerated and Renal lesions were minimal to absent
same,toxicity after three daily i.p. injections,[2]; 4.2 µmol CFz with 20 mg P-407,noticeably toxic to organs
same,toxicity after a single i.p. injection,[2],minimal effects on heart and kidney tissues without weight loss
same,toxicity after a single i.p. injection,[2]; listed as CFz,minimal toxicity
same,"BMH, brain multifocal hemorrhage score","[2]; 1 day, 4.2 µmol, 20 mg P-407",0
same,"HMNH, heart myocardial necrosis and hemorrhage score","[2]; 1 day, 4.2 µmol, 20 mg P-407",1 (<5% of myocardium affected) and 0 (2×)
same,"HN, hepatocellular necrosis score","[2]; 1 day, 4.2 µmol, 20 mg P-407",0
same,"LC, Liver capsule score","[2]; 1 day, 4.2 µmol, 20 mg P-407",0
same,"RTD, renal tubular dilation score","[2]; 1 day, 4.2 µmol, 20 mg P-407",0 and 1 (<5% of tubules affected) (2×)
same,"RTDR, renal tubular degeneration and regeneration score","[2]; 1 day, 4.2 µmol, 20 mg P-407",0 (2×) and 1 (<5% of tubules affected)
same,"SRPHMV, splenic red pulp histiocytosis with microvesicular vacuolation score","[2]; 1 day, 4.2 µmol, 20 mg P-407",0
same,Total organ score,"[2]; 1 day, 4.2 µmol, 20 mg P-407",2 (2×) and 1
same,∆ weight,"[2]; 1 day, 4.2 µmol, 20 mg P-407",–0.7% and +0.3% and +1.4%
same,"BMH, brain multifocal hemorrhage score","[2]; 3 days, 1.3 µmol, 12 mg P-407",0
same,"HMNH, heart myocardial necrosis and hemorrhage score","[2]; 3 days, 1.3 µmol, 12 mg P-407",1 (<5% of myocardium affected)
same,"HN, hepatocellular necrosis score","[2]; 3 days, 1.3 µmol, 12 mg P-407",0 (2×) and 2
same,"LC, Liver capsule score","[2]; 3 days, 1.3 µmol, 12 mg P-407",0
same,"RTD, renal tubular dilation score","[2]; 3 days, 1.3 µmol, 12 mg P-407",1 (<5% of tubules affected) (2×) and 0
same,"RTDR, renal tubular degeneration and regeneration score","[2]; 3 days, 1.3 µmol, 12 mg P-407",1 (<5% of tubules affected)
same,"SRPHMV, splenic red pulp histiocytosis with microvesicular vacuolation score","[2]; 3 days, 1.3 µmol, 12 mg P-407",0
same,Total organ score,"[2]; 3 days, 1.3 µmol, 12 mg P-407",3 and 2 and 5
same,∆ weight,"[2]; 3 days, 1.3 µmol, 12 mg P-407",–2.2%; also recorded: –0.4%; also recorded: –1.1%
same,"BMH, brain multifocal hemorrhage score","[2]; 3 days, 4.2 µmol, 20 mg P-407",0
same,"HMNH, heart myocardial necrosis and hemorrhage score","[2]; 3 days, 4.2 µmol, 20 mg P-407",2 (5-10% affected) (2×) and 1 (<5% of myocardium affected)
same,"HN, hepatocellular necrosis score","[2]; 3 days, 4.2 µmol, 20 mg P-407",0
same,"LC, Liver capsule score","[2]; 3 days, 4.2 µmol, 20 mg P-407",0
same,"RTD, renal tubular dilation score","[2]; 3 days, 4.2 µmol, 20 mg P-407",3 (25%–50% of tubules affected) (2×) and 2 (5%–25% of tubules affected)
same,"RTDR, renal tubular degeneration and regeneration score","[2]; 3 days, 4.2 µmol, 20 mg P-407",3 (25%–50% of tubules affected) and 2 (5%–25% of tubules affected) (2×)
same,"SRPHMV, splenic red pulp histiocytosis with microvesicular vacuolation score","[2]; 3 days, 4.2 µmol, 20 mg P-407",1
same,Total organ score,"[2]; 3 days, 4.2 µmol, 20 mg P-407",9 (2×) and 6
same,∆ weight,"[2]; 3 days, 4.2 µmol, 20 mg P-407",–8.3%; also recorded: –3.7%; also recorded: –3.0%
same,"BMH, brain multifocal hemorrhage score","[2]; 5 days, 1.3 µmol, 12 mg P-407",0
same,"HMNH, heart myocardial necrosis and hemorrhage score","[2]; 5 days, 1.3 µmol, 12 mg P-407",0 (2×) and 1 (<5% of myocardium affected)
same,"HN, hepatocellular necrosis score","[2]; 5 days, 1.3 µmol, 12 mg P-407",0
same,"LC, Liver capsule score","[2]; 5 days, 1.3 µmol, 12 mg P-407",0
same,"RTD, renal tubular dilation score","[2]; 5 days, 1.3 µmol, 12 mg P-407",0
same,"RTDR, renal tubular degeneration and regeneration score","[2]; 5 days, 1.3 µmol, 12 mg P-407",1 (<5% of tubules affected) (2×) and 0
same,"SRPHMV, splenic red pulp histiocytosis with microvesicular vacuolation score","[2]; 5 days, 1.3 µmol, 12 mg P-407",1
same,Total organ score,"[2]; 5 days, 1.3 µmol, 12 mg P-407",1 (2×) and 3
same,∆ weight,"[2]; 5 days, 1.3 µmol, 12 mg P-407",–3.2%; also recorded: –4.6%; also recorded: –1.8%
same,solubilization of 4.2 µmol in P-407 formulation,[1]; 4.2 µmol,a small amount of CFz residue already remained with 20 mg of P-407 but not 30 mg
same,Km,Antares,0.47 µM
same,Relative kcat,Antares,1.33

# Reference: article PMC10229426, “An optimized bioluminescent substrate for non-invasive imaging in the brain” (Nature Chemical Biology, 2023)
